Measured values from patent US20070134688A1, “CALCULATED INDEX OF GENOMIC EXPRESSION OF ESTROGEN RECEPTOR (ER) AND ER-RELATED GENES” (THE BOARD OF REGENTS OF THE UNIVERSITY OF TEXAS SYSTEM, priority 2005, published 2007).

Legend:
[1] = tested on: ER-positive cancer; settings: compared to placebo, cited from earlier work
[2] = tested on: ER-positive breast cancer; test: Distant relapse-free survival after adjuvant tamoxifen; assay type: in vivo, human; settings: ER-positive patients on adjuvant tamoxifen
Experimental: Patients and Samples. […] At MDACC, pre-treatment fine needle aspiration (FNA) samples of primary breast cancer were obtained using a 23-gauge needle and the cells from 1-2 passes were collected into a vial containing 1 ml of RNAlater™ solution (Ambion, Austin Tex.) and stored at −80° C. until use, whereas archival frozen samples were evaluated from resected, metastatic, ER-positive breast cancer. All patients signed an informed consent for voluntary participation to collect samples for research. At other institutions, fresh tissue samples of surgically resected primary breast cancer were frozen in OCT compound and stored at −80° C.
Statistical Analysis of Distant relapse-free survival (DRFS). Distant relapse-free survival (DRFS) was defined as the interval from breast surgery until diagnosis of distant metastasis. Covariate effects on distant relapse risk after tamoxifen treatment were evaluated using log-rank test in multivariate Cox proportional hazards models stratified by institution. […] Confidence intervals of the survival estimate were calculated based on the Tsiatis variance estimates of the cumulative log-hazards (Therneau and Grambsch, 2000). […]

## N#Cc1ccc(C(c2ccc(C#N)cc2)n2cncn2)cc1 [letrozole]
[1]; after 2.4 years, after 5 years of adjuvant tamoxifen
  relative reduction in deaths: 24%
[1]; at 2.4 years
  absolute difference in recurrence or new primaries: 2.2%

## CC/C(=C(\c1ccccc1)c1ccc(OCCN(C)C)cc1)c1ccccc1 [tamoxifen]
[2]; SET index<2
  mean relapse-free survival at 10 years: 57.1%
[2]; SET index>5
  mean relapse-free survival at 10 years: 90.0%
